This passage reports EC50 results from patent publication US12441730B2, “PRMT5 inhibitors” (Merck Sharp & Dohme LLC, priority 2019, dated 2025).

Where two headings read alike, the source gives them in different places.

As usually defined, the EC50 is the concentration giving half of the maximal effect.

In test [1] the target is T1, Full-length (FL)-PRMT5-MEP50 enzyme complex (Homo sapiens, UniProt O14744).
T1 construct: Full-length (FL)-PRMT5-MEP50 enzyme complex (recombinant proteins from baculovirus-transfected Sf21 cells: FL-PRMT5; MW=73837 kDa and FL-MEP50; MW=38614); made in house; host or cells: baculovirus-transfected Sf21 cells
T1 sequence (O14744 whole entry): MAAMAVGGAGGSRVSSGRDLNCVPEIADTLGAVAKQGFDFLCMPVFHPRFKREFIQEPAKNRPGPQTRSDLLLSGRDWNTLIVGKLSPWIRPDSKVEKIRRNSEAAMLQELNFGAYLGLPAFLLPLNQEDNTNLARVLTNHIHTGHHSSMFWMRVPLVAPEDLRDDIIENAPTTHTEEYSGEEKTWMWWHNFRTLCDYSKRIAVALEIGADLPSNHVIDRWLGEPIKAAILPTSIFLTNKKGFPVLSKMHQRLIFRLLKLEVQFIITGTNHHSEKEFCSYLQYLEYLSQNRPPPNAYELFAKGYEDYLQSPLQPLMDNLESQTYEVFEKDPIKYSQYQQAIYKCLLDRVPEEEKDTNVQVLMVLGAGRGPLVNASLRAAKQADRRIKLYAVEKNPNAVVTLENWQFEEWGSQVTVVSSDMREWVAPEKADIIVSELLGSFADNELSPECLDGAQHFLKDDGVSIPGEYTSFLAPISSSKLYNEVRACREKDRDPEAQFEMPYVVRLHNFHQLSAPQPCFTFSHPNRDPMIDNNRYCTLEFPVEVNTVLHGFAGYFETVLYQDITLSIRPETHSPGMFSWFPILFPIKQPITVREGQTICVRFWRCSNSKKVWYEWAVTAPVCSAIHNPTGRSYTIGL
T1 sequence (Q9BQA1 whole entry partner): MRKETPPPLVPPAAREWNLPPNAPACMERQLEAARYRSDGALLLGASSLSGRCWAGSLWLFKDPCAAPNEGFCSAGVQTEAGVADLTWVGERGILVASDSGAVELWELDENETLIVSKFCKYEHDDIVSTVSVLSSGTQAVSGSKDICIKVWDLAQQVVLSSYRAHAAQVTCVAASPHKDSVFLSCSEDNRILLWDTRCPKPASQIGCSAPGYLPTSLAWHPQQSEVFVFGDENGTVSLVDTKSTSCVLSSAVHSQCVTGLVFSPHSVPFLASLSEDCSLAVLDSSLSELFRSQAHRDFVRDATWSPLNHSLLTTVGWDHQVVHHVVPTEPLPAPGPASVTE
In words: PRMT5-MEP50 Enzyme Methylation Assay (Version B). The class given is biochemical. The protocol:
PRMT5-MEP50 Enzyme Methylation Assay (Version B)
PRMT5/MEP50 biochemical assay is a direct measurement of the methylation activity of the enzyme complex on a short peptide substrate derived from the N-terminus of H4 histone. Methylation experiment was performed with recombinant protein. The assessment of inhibitory effect (IC50) of small molecules was measured by the effectiveness of the compounds to inhibit this reaction.
In this assay, the potency (IC50) of each compound was determined from a twenty-point (1:2 serial dilution; top compound concentration of 100000 nM) titration curve using the following outlined procedure. To each well of a white ProxiPlus 384 well-plate, 100 nL of compound (1% DMSO in final assay volume of 10 μL) was dispensed, followed by the addition of 8 μL of 1× assay buffer (50 mM Bicine pH 8.0, 1 mM DTT, 0.004% Tween20, 0.01% BSA) containing 0.5 nM of Full-length (FL)-PRMT5-MEP50 enzyme complex (recombinant proteins from baculovirus-transfected Sf21 cells: FL-PRMT5; MW=[…] and FL-MEP50; MW=38614). Plates were sealed and placed in a 37° C. humidified chamber for 30 minutes pre-incubation with compounds. Subsequently, each reaction was initiated by the addition of 2 μL 1× assay buffer containing 75 nM biotinylated H4R3 (Me1) peptide, and 15 μM S-(5′-Adenosyl)-L-Methionine Chloride (SAM). The final reaction in each well of 10 μL consists of 0.5 nM PRMT5-MEP50, 75 nM biotinylated-peptide, and 15 μM SAM. Methylation reactions were allowed to proceed for 150 minutes in a sealed plate at 37° C. Reactions were immediately quenched by the addition of 1 μL of 10% formic acid. Plates were then frozen and shipped to SAMDI™ Tech Inc. to determine the percent conversion from […]. EC50 values were determined by non-linear regression according to models for either sigmoidal (4 parameters) or biphasic (7 parameters) dose-response curves.

Test [2] relates to symmetric dimethylation of arginine (SDMA) of PRMT5 substrates in MCF-7 cells. In words: PRMT5 Cell Target Engagement (TE) Assay. The class given is cell-based. As to conditions: 3 days treatment, SDMA high content imaging. The essentials: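 MCF-7 cells treated 3 days at 37 °C with a ten-point 1:3 titration from 10000 nM. Fixed cells immunostained with anti-SDMA and Alexa488 secondary; nuclear fluorescence quantified by high-content imaging versus DMSO wells, with IC50 from a 4-parameter fit.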

Setting [3] is: second value of 7 parameter biphasic fit, read-out: Enzyme Methylation Assay Version B (EC50 2).
[4] abbreviates: single EC50 = 4 parameter single site sigmoidal fit, EC50 1 = first value of 7 parameter biphasic fit, read-out: Enzyme Methylation Assay Version B (EC50 or EC50 1).

On to `O=C(c1ccc(-c2nnc(C3CC3)o2)cc1)N1CCC2(CC1)Cc1ccccc1CN2` [Example 118, [4-(5-cyclopropyl-1,3,4-oxadiazol-2-yl)phenyl](1,4-dihydro-1′H,2H-spiro[isoquinoline-3,4′-piperidin]-1′-yl)methanone], for which the EC50 in test [1] (setting [3]) is not below 100000 nM; in test [1] (setting [4]) it was 510 nM; in test [2] (Homo sapiens, MCF7, 72 h), not below 10000 nM.
Turning to `CCOc1cc(C(=O)N2C3CCC2COC3)ccc1C(=O)N1CCC2(Cc3ccccc3CN2)C(O)C1` (single isomer, unassigned) [Example 88, A diastereomer of {3-ethoxy-4-[(3′-hydroxy-1,4-dihydro-1′H,2H-spiro[isoquinoline-3,4′-piperidin]-1′-yl)carbonyl]phenyl}(3-oxa-8-azabicyclo[3.2.1]oct-8-yl)methanone], the EC50 in test [1] (setting [4]) was found to be 964 nM; in test [2] (Homo sapiens, MCF7, 72 h), 4290 nM.
Consider `CC(=O)N1CCC(Nc2cc(C(=O)N3CCC4(Cc5ccccc5CN4)C(O)C3)ncn2)CC1` (single isomer, unassigned) [Example 93, A diastereomer of 1-[4-({6-[(3′-hydroxy-1,4-dihydro-1′H,2H-spiro[isoquinoline-3,4′-piperidin]-1′-yl)carbonyl]-4-pyrimidinyl}amino)-1-piperidinyl]ethanone], for which the EC50 came to 1070 nM in test [1] (setting [3]), 3.11 nM in test [1] (setting [4]) and 27.3 nM in test [2].
With `[2H]C1([2H])NC2(CCN(C(=O)c3ccc(C(=O)N4C5CCC4COC5)cc3OCC)CC2)Cc2ccccc21` [Example 175, (4-(3-oxa-8-azabicyclo[3.2.1]octane-8-carbonyl)-2-ethoxyphenyl)(1,4-dihydro-2H-spiro[isoquinoline-3,4′-piperidin]-1′-yl-1,1-d2)methanone], the EC50 in test [1] (setting [3]) came out at 2490 nM; in test [1] (setting [4]), 6.32 nM; in test [2] (Homo sapiens, MCF7, 72 h), 156 nM.
`CC(=O)N1CCC(Nc2cc(C(=O)N3CCC4(Cc5ccccc5CN4)C(O)C3)ncn2)CC1` (single isomer, unassigned) [Example 91, A diastereomer of 1-[4-({6-[(3′-hydroxy-1,4-dihydro-1′H,2H-spiro[isoquinoline-3,4′-piperidin]-1′-yl)carbonyl]-4-pyrimidinyl}amino)-1-piperidinyl]ethanone]: the figures for the EC50 in test [1] (setting [3]), in test [1] (setting [4]) and in test [2] were 513 nM, 1.65 nM and 305 nM, respectively.
As for `O=C(c1ccc(C(F)(F)F)nc1Cl)N1CCC2(CC1)Cc1ccccc1CN2` [Example 116, [2-chloro-6-(trifluoromethyl)pyridin-3-yl](1,4-dihydro-1′H,2H-spiro[isoquinoline-3,4′-piperidin]-1′-yl)methanone], the concentration giving a half-maximal response (EC50) in test [1] (setting [3]) is not below 100000 nM; in test [1] (setting [4]), 807 nM; in test [2] (Homo sapiens, MCF7, 72 h), not below 10000 nM.
Take `CC(=O)N1CCC(Nc2cc(C(=O)N3CCC4(Cc5ccccc5CN4)C(O)C3)ncn2)CC1` (single isomer, unassigned) [Example 92, A diastereomer of 1-[4-({6-[(3′-hydroxy-1,4-dihydro-1′H,2H-spiro[isoquinoline-3,4′-piperidin]-1′-yl)carbonyl]-4-pyrimidinyl}amino)-1-piperidinyl]ethanone]: the EC50 in test [1] (setting [4]) is 944 nM; in test [2], not below 10000 nM.
In the case of `CC(=O)N1CCC(Nc2cc(C(=O)N3CC[C@]4(Cc5ccccc5CN4)[C@H](O)C3)ccn2)C(F)(F)C1` (single isomer, unassigned) [Example 96, 1—((S or R)-3,3-difluoro-4-((4-((3R,3′R)-3′-hydroxy-1,4-dihydro-2H-spiro[isoquinoline-3,4′-piperidine]-1′-carbonyl)pyridin-2-yl)amino)piperidin-1-yl)ethan-1-one], the EC50 came out at 34300 nM in test [1] (setting [3]), 19.7 nM in test [1] (setting [4]) and 767 nM in test [2].
For the compound `CCOc1nc(Cl)ccc1C(=O)N1CCC2(CC1)Cc1ccccc1CN2` [Example 114, (6-chloro-2-ethoxypyridin-3-yl)(1,4-dihydro-1′H,2H-spiro[isoquinoline-3,4′-piperidin]-1′-yl)methanone], the EC50 is 15000 nM in test [1] (setting [3]); 15.1 nM in test [1] (setting [4]); 7550 nM in test [2] (Homo sapiens, MCF7, 72 h).
With `O=C(c1ccc(C(=O)N2C3CCC2COC3)cc1)N1CCC2(Cc3ccccc3CN2)C(O)C1` (single isomer, unassigned) [Example 151, (3′-hydroxy-1,4-dihydro-1′H,2H-spiro[isoquinoline-3,4′-piperidin]-1′-yl)[4-(3-oxa-8-azabicyclo[3.2.1]oct-8-ylcarbonyl)phenyl]methanone], the EC50 amounted to 882 nM in test [1] (setting [4]) and 4180 nM in test [2].
As to `O=C(c1ccc(C(=O)N2C3CCC2COC3)cc1)N1CCC2(Cc3ccccc3CN2)C(O)C1` (single isomer, unassigned) [Example 150, (3′-hydroxy-1,4-dihydro-1′H,2H-spiro[isoquinoline-3,4′-piperidin]-1′-yl)[4-(3-oxa-8-azabicyclo[3.2.1]oct-8-ylcarbonyl)phenyl]methanone], the EC50 came out at 1840 nM in test [1] (setting [3]), 5.61 nM in test [1] (setting [4]) and 246 nM in test [2].
